Source: publication PMC12921516 (ACS Bio & Med Chem Au, 2025)

What was measured:
HepG2 cells = experiment: GC-MS untargeted metabolomic analysis; type: cell-based, human; conditions: HepG2, 30 μM for 24 h, vs DMSO
Experimental: HepG2 cells are commonly utilized in metabolomics to study alterations in metabolic pathways, such as glycolysis and lipid metabolism, when exposed to various substances, − due to their ability to sustain liver-specific functions. To explore the metabolic changes induced by the 4b and 5g derivatives in HepG2 cells, an untargeted metabolomic analysis using GC-MS was carried out. […] This vitamin is essential for synthesizing coenzyme A (CoA), which in turn produces acetyl-CoA and succinyl-CoA, all of which are crucial for ATP production in the tricarboxylic acid (TCA) cycle. […] On the other hand, our findings indicate that 5g leads to a reduction in intracellular citrate levels, which may promote glycolysis and diminish gluconeogenesis similarly to metformin. Consequently, this could potentially lower hepatic glucose output. In summary, the increased intracellular levels of pantothenic acid and glycine, combined with the lowered citrate levels achieved by 5g, may play a significant role in improving insulin resistance and T2DM.
5 GC-MS-based untargeted metabolomic analysis of HepG2. (a) Heatmap analysis of HepG2 cells treated with DMSO (D, vehicle), 4b, or 5g for 24 h. (b) Principal Component Analysis (PCA) of untargeted metabolomic analysis of HepG2 treated with DMSO (vehicle), 4b, and 5g at 30 μM for 24 h (c). Statistically significant metabolites altered between the groups. Graphs were constructed using sum-normalized peak height values. Asterisks indicate statistical significance according to the Dunn test, with p-values denoted as follows: *p < 0.05, **p < 0.01. Created in BioRender. Matuz Mares, D. (2025) https://BioRender.com/hpj5plg.
The treated HepG2 cells were washed twice with 1 mL of PBS, and the liquid was entirely removed by pipetting. Posteriorly, 1 mL of ice-cold methanol containing 2.5 μL of internal standard, consisting of tridecanoic acid (0.1 mg/mL), was added, and the mixture was bath sonicated for 2 min. All the extract was recovered in microcentrifuge tubes, thoroughly vortexed, and then centrifuged for 10 min at 15,000 rpm at 4 °C. The supernatant was recovered and dried overnight using a SpeedVac (SPD 121P, Thermo Scientific). 40 μL of 20 mg/mL […] was added under nitrogen flow and incubated for 90 min at 37 °C. Posteriorly, the tube was centrifuged, and the supernatant was fully recovered and transferred to an insert tube with 40 μL of MBSTFA 1% TMCS, vortexed and incubated for 30 min. One μL of this extract was injected into a GC/MS (Agilent 5977A/7890B, Santa Clara, CA, USA) system with HP5-MS (Agilent) column with helium 99.9999% purity under the following parameters: splitless, flow 1 mL/min, electron ionization, with a range of 50–500 m/z. The chromatography consisted of a 1 min hold at 60 °C, followed by a ramp of 10 °C/min to 325 °C, and a final hold time of 10 min. Raw data was transformed with Agilent Mass Hunter to mz data, and deconvolution and alignment were performed with Mzmine2.0. Univariate and multivariate analyses were performed with Metaboanalyst 6.0 and GraphPad.

hPTP1B1–400 = biological target: T1, hPTP1B1–400 (Homo sapiens, UniProt P18031); experiment: Enzymatic kinetics studies (Lineweaver–Burk, model fitting); type: biochemical; conditions: for inhibition type: hPTP1B1–400, best fit model; for Ki: hPTP1B1–400, pNPP 0.1–0.5 mM; for Km / Vmax: hPTP1B1–400 with inhibitor
T1 construct: h PTP1B 1–400 IC 50 (μM ± S.D); made in house
T1 sequence (P18031 1-400): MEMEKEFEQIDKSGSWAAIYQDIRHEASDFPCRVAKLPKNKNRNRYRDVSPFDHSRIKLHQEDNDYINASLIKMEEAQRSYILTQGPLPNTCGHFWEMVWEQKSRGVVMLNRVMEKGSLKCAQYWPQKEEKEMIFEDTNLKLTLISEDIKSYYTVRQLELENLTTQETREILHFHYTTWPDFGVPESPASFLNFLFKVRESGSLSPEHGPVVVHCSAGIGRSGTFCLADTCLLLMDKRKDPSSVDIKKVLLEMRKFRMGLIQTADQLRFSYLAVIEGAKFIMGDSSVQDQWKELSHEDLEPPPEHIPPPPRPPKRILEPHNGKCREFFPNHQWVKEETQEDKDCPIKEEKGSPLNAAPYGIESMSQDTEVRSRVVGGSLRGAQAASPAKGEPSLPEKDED
Experimental: Kinetic analyses were conducted using varying concentrations of substrate and inhibitor.
Five increasing concentrations of each inhibitor were tested, according to their previously determined IC50 values. The negative control was prepared by omitting the inhibitor in the presence of the enzyme and substrate. The Supporting Information includes detailed eqs (E1–E5) used to determine the kinetic parameters and mechanisms involved in PTP1B inhibition.
Equation 1 was used to obtain enzyme kinetic parameters by fitting data to the Michaelis-Menten model (Origin Pro
The equations defined for the following non-linear inhibition models were used to determine the mechanism of
PTP1B inhibition: competitive (E2), non-competitive (E3), uncompetitive (E4), and mixed (E5) (Origin Pro 2018 (64
(1+ ( ))(x05nh ) + (1+ ( )) (x05 nh)
Vmax is the maximum velocity, x is the substrate concentration, i is the inhibitor concentration, nh is the number of
Hill. Ki is the inhibition constant, and Km is the Michaelis constant.

CC1(C)c2[nH]c3ccc(OC(F)F)cc3c2C[C@]2(C)[C@H]3C(=O)C=C4[C@@H]5C[C@@](C)(C(=O)O)CC[C@]5(C)CC[C@@]4(C)[C@]3(C)CC[C@@H]12 [compound 4b, (20β)-5′-(Difluoromethoxy)-11-oxo-1′H-oleana-2,12-dieno[3,2-b]indol-29-oic Acid]
glycine levels (HepG2 cells): not statistically significant
intracellular fructose levels (HepG2 cells): not statistically significant
intracellular glucose levels (HepG2 cells): not statistically significant
intracellular palmitic acid levels (HepG2 cells): significantly reduce
intracellular stearic acid levels (HepG2 cells): significantly reduce
pantothenic acid levels (HepG2 cells): not statistically significant
inhibition type (hPTP1B1–400): uncompetitive
Ki (hPTP1B1–400): 320 ± 50 nM
Km (hPTP1B1–400): 760 ± 170 µM
Vmax (hPTP1B1–400): 1.24 ± 0.18 mM/min

CC1(C)c2[nH]c3ccc(S(N)(=O)=O)cc3c2C[C@]2(C)[C@H]3C(=O)C=C4[C@@H]5C[C@@](C)(C(=O)O)CC[C@]5(C)CC[C@@]4(C)[C@]3(C)CC[C@@H]12 [compound 4g, (20β)-5′-Sulfamoyl-11-oxo-1′H-oleana-2,12-dieno[3,2-b]indol-29-oic Acid]
inhibition type (hPTP1B1–400): uncompetitive
Ki (hPTP1B1–400): 1620 ± 190 nM
Km (hPTP1B1–400): 870 ± 130 µM
Vmax (hPTP1B1–400): 1.46 ± 0.15 mM/min

CC1(C)c2c(cnn2-c2ccc(S(N)(=O)=O)cc2)C[C@]2(C)[C@H]3C(=O)C=C4[C@@H]5C[C@@](C)(C(=O)O)CC[C@]5(C)CC[C@@]4(C)[C@]3(C)CC[C@@H]12 [compound 5g, (20β)-11-Oxo-2′-(4-sulfamoylphenyl)-2′H-oleana-2,12-dieno[3,2-c]pyrazol-29-oic Acid]
glycine levels (HepG2 cells): markedly increasing
intracellular citrate levels (HepG2 cells): reduction
intracellular fructose levels (HepG2 cells): significantly lowers
intracellular glucose levels (HepG2 cells): significantly lowers
pantothenic acid levels (HepG2 cells): significant increase
inhibition type (hPTP1B1–400): uncompetitive
Ki (hPTP1B1–400): 720 ± 120 nM
Km (hPTP1B1–400): 970 ± 200 µM
Vmax (hPTP1B1–400): 1.34 ± 0.21 mM/min
